What was measured:
[1] = target: T1, Proto-oncogene tyrosine-protein kinase Src (Homo sapiens, UniProt P12931); assay: Binding affinity was determined on Src protein tyrosine kinase SH2 domain using fluorescence polarization assay with 2% DMSO in buffer solution
[2] = target: T1, Proto-oncogene tyrosine-protein kinase Src; assay: Binding affinity for Src protein tyrosine kinase SH2 domain using fluorescence polarization assay with 20% DMSO in buffer solution
[3] = target: T1, Proto-oncogene tyrosine-protein kinase Src; assay: Binding affinity for Src protein tyrosine kinase SH2 domain
[4] = target: T1, Proto-oncogene tyrosine-protein kinase Src; assay: Binding affinity was determined on Src protein tyrosine kinase SH2 domain using scintillation proximity assay (SPA)

T1 sequence (P12931 2-536 limits assumed): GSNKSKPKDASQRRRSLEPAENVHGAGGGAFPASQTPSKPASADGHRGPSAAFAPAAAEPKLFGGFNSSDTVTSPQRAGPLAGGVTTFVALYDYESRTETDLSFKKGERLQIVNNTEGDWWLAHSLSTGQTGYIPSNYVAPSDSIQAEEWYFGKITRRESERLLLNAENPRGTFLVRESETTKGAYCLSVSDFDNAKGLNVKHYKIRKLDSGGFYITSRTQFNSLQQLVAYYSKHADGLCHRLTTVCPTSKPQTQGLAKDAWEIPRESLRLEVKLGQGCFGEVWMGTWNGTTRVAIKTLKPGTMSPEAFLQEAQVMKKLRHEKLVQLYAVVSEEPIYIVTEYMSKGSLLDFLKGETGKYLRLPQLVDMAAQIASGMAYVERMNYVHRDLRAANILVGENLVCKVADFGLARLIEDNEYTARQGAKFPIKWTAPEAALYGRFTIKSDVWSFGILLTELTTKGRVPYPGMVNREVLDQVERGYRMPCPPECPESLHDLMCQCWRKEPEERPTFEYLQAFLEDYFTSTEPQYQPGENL

SMILES: COc1ccc(C2Sc3ccccc3N(CC(=O)NCc3cccc4ccccc34)C(=O)C2NC(=O)[C@H](Cc2ccc(OP(=O)(O)OCc3ccccc3)cc2)NC(=O)OC(C)(C)C)cc1 (stereo in doubt; 3b)
- IC50 [1]: 118 µM

SMILES: COc1ccc(C2Sc3ccccc3N(CCCC3CCCCC3)C(=O)C2NC(=O)[C@H](Cc2ccc(OP(=O)(O)OCc3ccccc3)cc2)NC(=O)OC(C)(C)C)cc1 (stereo partly drawn)
- IC50 [2]: 28 µM
- IC50 [1]: 6.4 µM
- IC50 [3]: > 100 µM

SMILES: COC(=O)c1cccc(CN2CCSC[C@H](NC(=O)[C@H](Cc3ccc(OP(=O)(O)O)cc3)NC(C)=O)C2=O)c1
- IC50 [4]: 0.13 µM

SMILES: COc1ccc(C2Sc3ccccc3NC(=O)C2NC(=O)[C@H](Cc2ccc(OP(=O)(O)OCc3ccccc3)cc2)NC(=O)OC(C)(C)C)cc1 (stereo partly drawn)
- IC50 [1]: 873 µM

SMILES: CC(C)(C)OC(=O)N[C@H](Cc1ccc(OP(=O)(O)O)cc1)C(=O)NC1CSc2ccccc2N(CCCC2CCCCC2)C1=O (stereo partly drawn)
- IC50 [1]: 422 µM
- IC50 [3]: 18 µM

SMILES: COc1ccc(C2Sc3ccccc3N(CC(=O)NCc3cccc4ccccc34)C(=O)C2NC(=O)c2ccc3c(Cl)c(OP(=O)(O)OCc4ccccc4)ccc3c2)cc1 (stereo not drawn)
- IC50 [1]: 27 µM

SMILES: COc1ccc(C2Sc3ccccc3N(CC(=O)Nc3cccc4ccccc34)C(=O)C2NC(=O)[C@H](Cc2ccc(OP(=O)(O)OCc3ccccc3)cc2)NC(=O)OC(C)(C)C)cc1 (stereo in doubt; 3c)
- IC50 [1]: 189 µM

SMILES: CC(=O)N[C@@H](Cc1ccc(OP(=O)(O)O)cc1)C(=O)N[C@H]1CSCCN(Cc2ccc(-c3ccccc3)cc2)C1=O
- IC50 [4]: 0.09 µM

SMILES: COc1ccc(C2Sc3ccccc3N(CC(=O)NCc3cccc4ccccc34)C(=O)C2NC(=O)c2ccc3cc(OP(=O)(O)OCc4ccccc4)ccc3c2)cc1 (stereo not drawn)
- IC50 [1]: 23 µM

SMILES: COc1ccc(C2Sc3ccccc3N(CC(=O)Nc3ccc(Oc4ccccc4)cc3)C(=O)C2NC(=O)[C@H](Cc2ccc(OP(=O)(O)OCc3ccccc3)cc2)NC(=O)OC(C)(C)C)cc1 (stereo partly drawn)
- IC50 [1]: 29 µM

SMILES: CC(=O)N[C@@H](Cc1ccc(OP(=O)(O)O)cc1)C(=O)N[C@H]1CSCCN(CC(=O)c2ccc(N(C)C)cc2)C1=O
- IC50 [4]: 9.3 µM

SMILES: COc1ccc(C2Sc3ccccc3N(CC(=O)Nc3cccc(Oc4ccccc4)c3)C(=O)C2NC(=O)[C@H](Cc2ccc(OP(=O)(O)OCc3ccccc3)cc2)NC(=O)OC(C)(C)C)cc1 (stereo partly drawn)
- IC50 [1]: 14.2 µM

SMILES: COc1ccc(C2Sc3ccccc3N(Cc3ccc(-c4ccccc4C(=O)OC(C)(C)C)cc3)C(=O)C2NC(=O)[C@H](Cc2ccc(OP(=O)(O)OCc3ccccc3)cc2)NC(=O)OC(C)(C)C)cc1 (stereo partly drawn)
- IC50 [1]: 18 µM

SMILES: CC(=O)N[C@@H](Cc1ccc(OP(=O)(O)O)cc1)C(=O)N[C@H]1CSCCN(Cc2ccc3c(c2Cl)OCO3)C1=O
- IC50 [4]: 1.2 µM

SMILES: CC(=O)N[C@@H](Cc1ccc(OP(=O)(O)O)cc1)C(=O)N[C@H]1CSCCN(Cc2cccc(C(F)(F)F)c2)C1=O
- IC50 [1]: 1.6 µM

SMILES: COc1ccc(C2Sc3ccccc3N(CC(=O)NCc3cccc4ccccc34)C(=O)C2NC(=O)[C@H](Cc2ccc(OP(=O)(O)OCc3ccccc3)cc2)NC(=O)OC(C)(C)C)cc1 (stereo in doubt; 3a)
- IC50 [1]: 128 µM

SMILES: COc1ccc(C2Sc3ccccc3N(CC(=O)NCc3cccc4ccccc34)C(=O)C2NC(=O)CCc2ccc(OP(=O)(O)OCc3ccccc3)cc2)cc1 (stereo not drawn)
- IC50 [1]: 339 µM

SMILES: COc1ccc(C2Sc3ccccc3N(CC(=O)Nc3cccc4ccccc34)C(=O)C2NC(=O)[C@H](Cc2ccc(OP(=O)(O)OCc3ccccc3)cc2)NC(=O)OC(C)(C)C)cc1 (stereo in doubt; 3n)
- IC50 [1]: 23 µM

SMILES: COc1ccc(C2Sc3ccccc3N(Cc3ccccc3)C(=O)C2NC(=O)[C@H](Cc2ccc(OP(=O)(O)OCc3ccccc3)cc2)NC(=O)OC(C)(C)C)cc1 (stereo partly drawn)
- IC50 [1]: 46 µM

SMILES: COc1ccc(C2Sc3ccccc3N(CC(=O)NCc3cccc4ccccc34)C(=O)C2NC(=O)c2ccc(OP(=O)(O)OCc3ccccc3)cc2)cc1 (stereo not drawn)
- IC50 [1]: 20 µM

SMILES: COc1ccc(C2Sc3ccccc3N(CC(=O)NCc3cccc4ccccc34)C(=O)C2NC(=O)c2cc3cc(OP(=O)(O)OCc4ccccc4)ccc3[nH]2)cc1 (stereo not drawn)
- IC50 [1]: 32 µM

SMILES: CC[C@H](C)[C@H](NC(=O)[C@H](CCC(=O)O)NC(=O)[C@H](CCC(=O)O)NC(=O)[C@@H](N)Cc1ccc(OP(=O)(O)O)cc1)C(=O)O
- IC50 [2]: 5 µM
- IC50 [1]: 6.5 µM
- IC50 [3]: 0.15 µM

SMILES: COc1ccc(C2Sc3ccccc3N(C(C(=O)Nc3cccc4ccccc34)c3ccccc3)C(=O)C2NC(=O)[C@H](Cc2ccc(OP(=O)(O)OCc3ccccc3)cc2)NC(=O)OC(C)(C)C)cc1 (stereo partly drawn)
- IC50 [1]: 23 µM

SMILES: CC(=O)N[C@@H](Cc1ccc(OP(=O)(O)O)cc1)C(=O)N[C@H]1CSCCN(Cc2cccc(OC(F)(F)F)c2)C1=O
- IC50 [1]: 0.4 µM

SMILES: CC(=O)N[C@@H](Cc1ccc(OP(=O)(O)O)cc1)C(=O)N[C@H]1CSCCN(Cc2cccc(-c3ccccc3C#N)c2)C1=O
- IC50 [4]: 0.3 µM

SMILES: COc1ccc(C2Sc3ccccc3N(CC(=O)Nc3ccccc3OC)C(=O)C2NC(=O)[C@H](Cc2ccc(OP(=O)(O)OCc3ccccc3)cc2)NC(=O)OC(C)(C)C)cc1 (stereo partly drawn)
- IC50 [1]: 95 µM

SMILES: CC(C)(C)OC(=O)N[C@@H](Cc1ccc(OP(=O)(O)O)cc1)C(=O)NC1CSCCN(CCCC2CCCCC2)C1=O (stereo partly drawn)
- IC50 [1]: 115 µM
- IC50 [3]: 1.4 µM

SMILES: CC(C)(C)OC(=O)N[C@@H](Cc1ccc(OP(=O)(O)O)cc1)C(=O)NC1CSc2ccccc2N(CCCC2CCCCC2)C1=O (stereo partly drawn)
- IC50 [2]: 11 µM
- IC50 [1]: 10 µM
- IC50 [3]: 1 µM

SMILES: COc1ccc(C2Sc3ccccc3N(CC(=O)Nc3cccc4ccccc34)C(=O)C2NC(=O)[C@H](Cc2ccc(OP(=O)(O)OCc3ccccc3)cc2)NC(=O)OC(C)(C)C)cc1 (stereo in doubt; 3m)
- IC50 [1]: 26 µM

SMILES: CC(=O)N[C@@H](Cc1ccc(OP(=O)(O)O)cc1)C(=O)N[C@H]1CSCCN(Cc2cccc(C(=O)c3ccccc3)c2)C1=O
- IC50 [1]: 1.6 µM

SMILES: COc1ccc(C2Sc3ccccc3N(CC(=O)NCc3cccc4ccccc34)C(=O)C2NC(=O)Cc2ccc(OP(=O)(O)OCc3ccccc3)cc2)cc1 (stereo not drawn)
- IC50 [1]: 5 µM

SMILES: COc1ccc(C2Sc3ccccc3N(CC(=O)Nc3cccc4ccccc34)C(=O)C2NC(=O)[C@H](Cc2ccc(OP(=O)(O)OCc3ccccc3)cc2)NC(=O)OC(C)(C)C)cc1 (stereo in doubt; 3l)
- IC50 [1]: 133 µM

SMILES: CC(C)(C)OC(=O)N[C@@H](Cc1ccc(OP(=O)(O)OCc2ccccc2)cc1)C(=O)NC1CSc2ccccc2N(CCCC2CCCCC2)C1=O (stereo partly drawn)
- IC50 [2]: 87 µM
- IC50 [1]: 26 µM
- IC50 [3]: 13 µM

Reference: ChEMBL document CHEMBL1133907, “Discovery of thioazepinone ligands for Src SH2: from non-specific to specific binding” (Bioorg Med Chem Lett, 2001)
